Common to all, as to experiment: Anti-bacterial test, minimum inhibitory concentration on agar
What all share (type): cell-based

The test system of experiment [1] is Streptococcus pyogenes E—14. As to conditions: Streptococcus pyogenes E—14, medium B—TSA. The text has this:
(§1) The compound (I) thus obtained is useful as a drug, being active against certain gram-positive and gram-negative bacteria. By way of example, the compounds are active against the following micro-organisms.
(§2) The media and compounds employed in the anti-bacterial test are as follows: • Media: • TSA = Trypticase soy agar • [Baltimore Biologicals (U.S.A.)] • B-TSA = Blood trypticase soy agar • Compounds: • Compound A = Sodium 3-[2-(2-amino-4-thiazolyl)-2-methoxyiminoacetamido]-2-oxo-azetidine-1-sulphonate • Compound B = Sodium 3-[D(-)-N-(4-ethyl-2,3-dioxo-1-piperazinocarbonyl)-phenyl-glycin- amido]-2-oxoazetidine-1-sulphonate • Compound C = Sodium 3-[D(-)-N-(4-ethyl-2,3-dioxo-1-piperazinocarbonyl)phenylglycinamido]-3-methoxy-2-oxoazetidine-1-sulphonate • Compound D = Sodium 3-[2-(4-ethyl-2,3-dioxo-1-piperazinocarboxamido)-2-(2-amino-4-thiazolyl)-acetamido]-2-oxoazetidine-1-sulphonate • Compound E = Sodium 3-[DL-2-(4-ethyl-2,3-dioxo-1-piperazinocarboxamido)-2-thienylacetamido]-2-oxoazetidine-1-sulphonate • Compound F = Sodium 3-[D-2-(4-ethyl-2,3-dioxo-1-piperazinocarboxamido)-2-thienylacetamido]-2-oxoazetidine-1-sulphonate • Compound G = Sodium 3-[D-2-(4-n-octyl-2,3-dioxo-1-piperazinocarboxamido)-2-phenylacetamido]-2-oxoazetidine-1-sulphonate • Compound H = Sodium 3-[2-(4-n-octyl-2,3-dioxo-1-piperazinocarboxamido)-2-(2-amino-4-thiazolyl)-acetamido]-2-oxoazetidine-1-sulphonate • Compound I = Sodium 3-[D-2-[(2-oxo-3-furfurylideneaminoimidazolidin-1-yl)-carboxamido]-2-phenylacetamido]-2-oxoazetidine-1-sulphonate • Compound J = Sodium 3-[2-(4-n-octyl-2,3-dioxo-1-piperazinocarboxamido)-2-thienylacetamido]-2-oxoazetidine-1-sulphonate • Compound K = Sodium 3-[D-2-[[2-oxo-3-(thiophen-2-aidoimino)-imidazolidin-1-yl]-carboxamido]-2-phenylacetamido]-2-oxoazetidine-1-sulphonate • Compound L = Sodium 3-[2-[(2-oxo-3-furfurylideneaminoimidazolidin-1-yl)-carboxamido]-2-thienylacetamido]-2-oxoazetidine-1-sulphonate

The subject of experiment [2] is Citrobacter freundii IFO 12681. As to conditions: Citrobacter freundii IFO 12681; medium TSA.
From the text: as §1, §2

Experiment [3] has as its system Proteus morganii IFO 3168. As to conditions: Proteus morganii IFO 3168, medium TSA.
From the text: as §1, §2

Experiment [4] has as its system Pseudomonas aeruginosa U 31. The following applies: Pseudomonas aeruginosa U 31, medium TSA.
From the text: as §1, §2

For experiment [5], the system named is Proteus vulgaris IFO 3988. As to conditions: for Minimum inhibitory concentration: Proteus vulgaris IFO 3988, medium TSA.
From the text: as §1, §2

For experiment [6], the system named is Serratia marcescens IFO 12648. As to conditions: Serratia marcescens IFO 12648, medium TSA.
From the text: as §1, §2

In experiment [7] the test system is Enterobacter cloacae IFO 12937. As to conditions: Enterobacter cloacae IFO 12937, medium TSA.
From the text: as §1, §2

Experiment [8] concerns Proteus mirabilis IFO 3849. The following applies: Proteus mirabilis IFO 3849, medium TSA.
From the text: as §1, §2

The subject of a further experiment is Klebsiella pneumoniae DT. As to conditions: for Minimum inhibitory concentration: Klebsiella pneumoniae DT, medium TSA.
From the text: as §1, §2

Experiment [9] relates to Streptococcus pyogenes S—8. The following applies: Streptococcus pyogenes S—8, medium B—TSA.
From the text: as §1, §2

For experiment [10], the system named is Staphylococcus aureus 308A—1. The following applies: Staphylococcus aureus 308A—1; medium TSA.
From the text: as §1, §2

Experiment [11] has as its system Acinetobacter calcoaceticus IFO 13006. As to conditions: Acinetobacter calcoaceticus IFO 13006; medium TSA.
From the text: as §1, §2

The subject of experiment [12] is Streptococcus mitis America. The following applies: Streptococcus mitis America; medium B—TSA.
From the text: as §1, §2

Experiment [13] has as its system Staphylococcus aureus FDA209P. As to conditions: Staphylococcus aureus FDA209P.
From the text: as §1, §2

The subject of experiment [14] is Escherichia coli NIHJ JC—2. As to conditions: Escherichia coli NIHJ JC—2, medium TSA.
From the text: as §1, §2

Experiment [15] deals with Staphylococcus aureus 1840. As to conditions: Staphylococcus aureus 1840; medium TSA.
From the text: as §1, §2

Experiment [16] deals with Pseudomonas aeruginosa IFO 3455. The following applies: Pseudomonas aeruginosa IFO 3455; medium TSA.
From the text: as §1, §2

The test system of the next experiment is Escherichia coli T-7. As to conditions: medium TSA.
From the text: as §1, §2

Experiment [17] has as its system Bordetella bronchiseptica Sagami. The following applies: Bordetella bronchiseptica Sagami; medium B—TSA.
From the text: as §1, §2

For a further experiment, the system named is Candida albicans TA. The following applies: Candida albicans TA, medium TSA.
From the text: as §1, §2

For experiment [18], the system named is Corynebacterium diphtheriae Toronto. As to conditions: Corynebacterium diphtheriae Toronto, medium B—TSA.
From the text: as §1, §2

Experiment [19] concerns Streptococcus faecium IFO 3128. The following applies: Streptococcus faecium IFO 3128; medium B—TSA.
From the text: as §1, §2

In the next experiment the test system is Escherichia coli O—111. As to conditions: medium TSA.
From the text: as §1, §2

The test system of experiment [20] is Streptococcus pneumoniae Type I. As to conditions: Streptococcus pneumoniae Type I; medium B—TSA.
From the text: as §1, §2

[21] abbreviates: read-out: Minimum inhibitory concentration.

Minimum inhibitory concentration and MIC data for 3 molecules are collected here from EP0021678B1, “1-Sulpho-2-oxoazetidine derivatives, their production and pharmaceutical compositions thereof” (Takeda Chemical Industries, Ltd., priority 1979, dated 1981).

Take `CCN1CCN(C(=O)NC(C(=O)NC2CN(S(=O)(=O)[O-])C2=O)c2cccs2)C(=O)C1=O.[Na+]` (racemic) [Compound E, Sodium 3-[DL-2-(4-ethyl-2,3-dioxo-1-piperazinocarboxamido)-2-thienylacetamido]-2-oxoazetidine-1-sulphonate]: the Minimum inhibitory concentration in experiment [1] was 1.56 µg/mL; in experiment [2], 3.13 µg/mL; in experiment [3] it was 12.5 µg/mL; in experiment [4], more than 100 µg/mL; in [5], less than 0.1 µg/mL; in experiment [6], 3.13 µg/mL. Further, the Minimum inhibitory concentration in experiment [7] was 3.13 µg/mL; in experiment [8], 0.78 µg/mL; in the experiment on Klebsiella pneumoniae DT, 0.78 µg/mL; in experiment [9], 3.13 µg/mL; in experiment [10] it was 6.25 µg/mL; in experiment [11], 50 µg/mL. Besides, the Minimum inhibitory concentration in experiment [12] came out at 25 µg/mL; in experiment [13] (medium B—TSA), 6.25 µg/mL; in [13] (medium TSA) it was 6.25 µg/mL; in experiment [14], 1.56 µg/mL; in experiment [15], 25 µg/mL; in experiment [16], 3.13 µg/mL. The Minimum inhibitory concentration in the experiment on Escherichia coli T-7 was more than 100 µg/mL; in [17] it was more than 100 µg/mL; with Candida albicans TA, more than 100 µg/mL; in [18] it was 0.39 µg/mL; in experiment [19], more than 100 µg/mL; in the experiment on Escherichia coli O—111, 0.2 µg/mL. In addition, in experiment [20], the Minimum inhibitory concentration was found to be 3.13 µg/mL.
Turning to `CCN1CCN(C(=O)N[C@@H](C(=O)NC2(OC)CN(S(=O)(=O)O)C2=O)c2ccccc2)C(=O)C1=O` (single isomer, unassigned) [Compound C, Sodium 3-[D(-)-N-(4-ethyl-2,3-dioxo-1-piperazinocarbonyl)phenylglycinamido]-3-methoxy-2-oxoazetidine-1-sulphonate], the MIC in experiment [1] (setting [21]) is 50 µg/mL; in experiment [3] (Morganella morganii, IFO3168, read-out: Minimum inhibitory concentration), more than 100 µg/mL; in experiment [4] (U31, read-out: Minimum inhibitory concentration) it was more than 100 µg/mL; in [5] (Proteus vulgaris, IFO3988, read-out: Minimum inhibitory concentration), 12.5 µg/mL; in [6] (IFO12648, read-out: Minimum inhibitory concentration) it was 50 µg/mL; in experiment [7] (IFO12937, read-out: Minimum inhibitory concentration) it was more than 100 µg/mL. In addition, the MIC is 50 µg/mL in [8] (IFO3849, read-out: Minimum inhibitory concentration); 12.5 µg/mL in the experiment on Klebsiella pneumoniae DT (Klebsiella pneumoniae, read-out: Minimum inhibitory concentration); 50 µg/mL in [9] (setting [21]); 100 µg/mL in experiment [13] (Staphylococcus aureus, FDA209P, medium TSA, read-out: Minimum inhibitory concentration); 50 µg/mL in [14] (setting [21]); more than 100 µg/mL with Candida albicans TA (setting [21]). In addition, the values for the MIC (in [18] (setting [21]); against Escherichia coli O—111) were 50 µg/mL and 12.5 µg/mL, respectively.
Turning to `CCCCCCCCN1CCN(C(=O)NC(C(=O)NC2CN(S(=O)(=O)[O-])C2=O)c2cccs2)C(=O)C1=O.[Na+]` (stereo not drawn) [Compound J, Sodium 3-[2-(4-n-octyl-2,3-dioxo-1-piperazinocarboxamido)-2-thienylacetamido]-2-oxoazetidine-1-sulphonate], the Minimum inhibitory concentration in experiment [1] is 1.56 µg/mL; in experiment [2] it was 3.13 µg/mL; in experiment [3], 1.56 µg/mL; in [4], 25 µg/mL; in experiment [5], 1.56 µg/mL; in experiment [6], 1.56 µg/mL. Also, the Minimum inhibitory concentration was 6.25 µg/mL in experiment [7]; 3.13 µg/mL in [8]; 1.56 µg/mL in the experiment with Klebsiella pneumoniae DT; 1.56 µg/mL in [9]; 1.56 µg/mL in [10]; 6.25 µg/mL in [11]. In addition, the Minimum inhibitory concentration was 25 µg/mL in experiment [12]; 3.13 µg/mL in experiment [13] (medium B—TSA); 1.56 µg/mL in experiment [13] (medium TSA); 3.13 µg/mL in experiment [14]; 6.25 µg/mL in experiment [15]; 6.25 µg/mL in experiment [16]. For the same molecule, the Minimum inhibitory concentration in the experiment on Escherichia coli T-7 was more than 100 µg/mL; in experiment [17], more than 100 µg/mL; in the experiment on Candida albicans TA it was more than 100 µg/mL; in experiment [18] it was 0.78 µg/mL; in experiment [19] it was more than 100 µg/mL; in experiment [20] it was 1.56 µg/mL.
